From patent publication US20120208809A1, “9H-PYRROLO[2,3-B: 5,4-C'] DIPYRIDINE AZACARBOLINE DERIVATIVES, PREPARATION THEREOF, AND THERAPEUTIC USE THEREOF” (SANOFI, priority 2009, published 2012)

Columns and labels:
Pim-1 = biological target: T1, Pim-1 (Homo sapiens, UniProt P11309); assay: TR-FRET assay of Pim kinase activity (phosphorylation of Bad Ser112), Pim-1; assay type: biochemical; conditions: ATP 40 μM, read-out: IC50 Pim1
T1 construct: full-length human recombinant His6-labelled Pim-1, Pim-2 or Pim-3 protein; His6; made in house
How it was run: (§1)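 Full-length His6-tagged human Pim-1, -2 or -3 phosphorylate full-length His6-Bad at 40 μM ATP; phospho-Ser112 detected by TR-FRET (Eu anti-phosphoBad, APC anti-His6), 665/615 nm ratio. Compounds run at 10 concentrations in duplicate, typically top 30 μM; IC50 from 4-parameter logistic fit.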

Pim-2 = biological target: T2, Pim-2 (Homo sapiens, UniProt Q9P1W9); assay: TR-FRET assay of Pim kinase activity (phosphorylation of Bad Ser112), Pim-2; assay type: biochemical; conditions: ATP 40 μM, read-out: IC50 Pim2
T2 construct: full-length human recombinant His6-labelled Pim-1, Pim-2 or Pim-3 protein; His6; made in house
How it was run: as §1

Pim-3 = biological target: T3, Pim-3 (Homo sapiens, UniProt Q86V86); assay: TR-FRET assay of Pim kinase activity (phosphorylation of Bad Ser112), Pim-3; assay type: biochemical; conditions: ATP 40 μM, read-out: IC50 Pim3
T3 construct: full-length human recombinant His6-labelled Pim-1, Pim-2 or Pim-3 protein; His6; made in house
How it was run: as §1

CDK1 = CDK1 (Homo sapiens, UniProt P06493); assay: Biochemical results, IC50 CDK1
PLK1 = PLK1 (Homo sapiens, UniProt P53350); assay: Biochemical results, IC50 PLK1
EOL-1 = assay: Cell viability assay (CellTiter-Blue), EOL-1; assay type: cell-based; conditions: Homo sapiens, EOL1, read-out: EC50 EOL-1 μM (eosinophilic leukaemia), EOL-1 cells, read-out: EC50 EOL-1 μM (lymphoma);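 note: EOL-1 is an acute myeloid eosinophilic leukaemia line not a lymphoma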
Source text: (§2) The representative compounds of the invention are also screened as regards their effects on cell proliferation and viability, using a variety of tumoral cell lines of human source, representative of different pathological indications. These cell lines include:
Models of Haematological Cancers: • TF-1 (acute myelogenic leukaemia; AML M6 at the time of diagnosis); • K G-1 (AML; erythroleukaemia evolving into AML); • KG-1a (AML; subclone derived from immature KG-1); • EOL-1 (AML: eosinophilic leukaemia); • PL-21 (AML; M3); • ML-2 (AML; T-NHL evolving into T-ALL evolving into AML M4); • HL-60 (AML, M3); • Kasumi-1 (AML); • GDM-1 (AML); • K-562 (CML—chronic myelogenic leukaemia; blastic crisis); • JURL-MK1 (CML; blastic crisis); • DND-41 (T-ALL—T-cell acute lymphoblastic leukaemia); • Jurkat (T-ALL); NALM-6 (B-ALL B-cell ALL); • CEM (ALL; lymphosarcoma evolving into ALL); • Jeko-1 (B-NHL—B-cell non-Hodgkin lymphoma; lymphoma with coat cells derived from a large-cell variant in leukaemic transformation); • WSU-DLCL2 (B-NHL; diffuse lymphoma with large B cells); • RL (B-NHL; undifferentiated diffuse); • OCl-Ly10 (B-NHL); • DoHH-2 (B-NHL); • RPMI-8226 (MM—multiple myelomas); • JVM-2 (B-CLL—B-cell chronic lymphocytic leukaemia); and • JVM-3 (B-CLL).
(§3) In order to measure the viability, the tumour cells are incubated in 96-well or 384-well format for 48, 72 or 96 hours, preferably 72 hours, with a compound of the invention at dilutions of a factor 3, with, in general, nine doses in total, the highest dose being equal to 10 μM or 30 μM. The cell viability is evaluated by adding CellTiter-Blue® (Promega, Madison, Wis., United States) for 4 hours and endpoint readings are taken using a SpectraMax Genmini EM plate reader (Molecular Devices, Sunnyvale, Calif., United States). The CellTiter-Blue® cell viability assay measures the ability of the cells in culture to reduce resazurin to resorufin, the intensity of the fluorescence signal being directly proportional to the number of live cells. The EC50 represents the concentration of compound that leads to a 50% reduction of the viability/proliferative expansion of the cells.

MOLM-13 = assay: Cell viability assay (CellTiter-Blue), MOLM-13; assay type: cell-based; conditions: Homo sapiens, read-out: EC50 MOLM-13 μM, MOLM-13 cells, read-out: EC50 MOLM-13 μM (myeloma)
Experimental: as §2, §3

MV4-11 = assay: Cell viability assay (CellTiter-Blue), MV4-11; assay type: cell-based; conditions: Homo sapiens, read-out: EC50 MV4-11 μM (acute myeloid leukemia), MV4-11 cells, read-out: EC50 MV4-11 μM (myeloma)
Experimental: as §2, §3

phosphoBAD (DND-41) = assay: Level of phosphorylation of Bad by ELISA, DND-41 cell line; assay type: cell-based; conditions: Homo sapiens, DND41, DND-41 cells, 3 hours at 37° C.
Experimental: The activity of the molecules is evaluated on the JEKO or DND-41 cell line by measuring the level of phosphorylation of Bad and the total Bad content, via the ELISA technique.
The JEKO or DND-41 cells are resuspended at a concentration of 500 000 cells per ml. The cells are then diluted in RPMI-1640 medium containing 20% foetal calf serum. 225 μl of cells are placed in a plate. Serial dilutions of the molecules are then performed (8 points, three-fold dilution, range started at 10 mM). Each dilution point is then diluted to 1/100 in medium. Next, 25 μl of each of the concentrations are added to the cells and then incubated for 3 hours at 37° C.
100 μl of the cells are transferred into a plate treated with poly-D-Lysine. The plate is then incubated for 5-10 minutes at 37° C. and then centrifuged for 5 minutes at 1500 rpm. A volume of 100 μl of 8% fixing solution (solution of formaldehyde in PBS buffer) is added to each of the wells. After covering with a self-adhesive film and a lid, the plate is incubated for 20 minutes at room temperature and then stored at 4° C. overnight.
Next, the liquid is removed and two successive washes are performed with washing buffer. 100 μl of quenching buffer are added, followed by incubating for 15 minutes at room temperature. After washing, 100 μl of […] at room temperature. After washing, 50 μl of primary antibody diluted to 1/250 for pBAD (Cell Signaling Cat#5284) and to 1/500 for Bad (MBL Cat#591) are added to each of the plates. Each plate is incubated for 2 hours at room temperature. After two washes, 50 μl of secondary antibody (diluted to 1/16) are added to the pBAD plate (tebu-bio ref; FE-021) and 50 μl of the HRP-conjugated IgG secondary antibody (Santa Cruz Cat #SC-2004; diluted to 1/1000) are added to the Bad plate. Incubation for 1 hour at room temperature is performed. Four washes with the washing solution are performed, followed by three washes with PBS. Finally, 100 μl of the developing solution are added, followed by incubation for 10 minutes. Finally, 100 μl of the quenching solution are added, before reading at 450 nm.

T1 sequence (P11309 whole entry): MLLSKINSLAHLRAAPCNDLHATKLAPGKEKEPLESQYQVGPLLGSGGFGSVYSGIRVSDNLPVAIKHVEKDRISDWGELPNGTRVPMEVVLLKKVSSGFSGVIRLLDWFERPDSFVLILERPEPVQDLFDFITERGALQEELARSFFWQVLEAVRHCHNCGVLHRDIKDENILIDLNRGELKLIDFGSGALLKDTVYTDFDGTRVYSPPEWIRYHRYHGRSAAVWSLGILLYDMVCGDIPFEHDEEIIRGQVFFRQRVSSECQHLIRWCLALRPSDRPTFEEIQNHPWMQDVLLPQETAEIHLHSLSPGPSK
T2 sequence (Q9P1W9 whole entry): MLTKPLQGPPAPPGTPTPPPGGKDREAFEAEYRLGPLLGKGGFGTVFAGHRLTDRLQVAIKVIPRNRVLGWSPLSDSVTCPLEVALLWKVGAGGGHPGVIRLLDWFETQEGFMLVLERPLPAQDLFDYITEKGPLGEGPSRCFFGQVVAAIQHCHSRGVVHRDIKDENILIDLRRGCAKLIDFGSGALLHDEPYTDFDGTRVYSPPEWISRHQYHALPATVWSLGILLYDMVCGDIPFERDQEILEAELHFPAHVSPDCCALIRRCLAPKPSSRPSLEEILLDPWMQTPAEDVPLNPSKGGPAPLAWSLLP
Chain of CDK1 (P06493 whole entry, species assumed): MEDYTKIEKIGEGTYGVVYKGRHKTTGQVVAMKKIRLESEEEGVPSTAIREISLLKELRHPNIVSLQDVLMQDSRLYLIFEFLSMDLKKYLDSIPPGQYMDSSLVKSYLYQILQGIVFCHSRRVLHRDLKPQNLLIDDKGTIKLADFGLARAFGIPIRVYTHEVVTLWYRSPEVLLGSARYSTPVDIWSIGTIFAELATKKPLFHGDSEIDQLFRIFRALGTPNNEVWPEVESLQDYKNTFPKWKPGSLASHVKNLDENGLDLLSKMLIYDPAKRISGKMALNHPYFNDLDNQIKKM
Chain of CDK1 (P14635 whole entry partner, species assumed): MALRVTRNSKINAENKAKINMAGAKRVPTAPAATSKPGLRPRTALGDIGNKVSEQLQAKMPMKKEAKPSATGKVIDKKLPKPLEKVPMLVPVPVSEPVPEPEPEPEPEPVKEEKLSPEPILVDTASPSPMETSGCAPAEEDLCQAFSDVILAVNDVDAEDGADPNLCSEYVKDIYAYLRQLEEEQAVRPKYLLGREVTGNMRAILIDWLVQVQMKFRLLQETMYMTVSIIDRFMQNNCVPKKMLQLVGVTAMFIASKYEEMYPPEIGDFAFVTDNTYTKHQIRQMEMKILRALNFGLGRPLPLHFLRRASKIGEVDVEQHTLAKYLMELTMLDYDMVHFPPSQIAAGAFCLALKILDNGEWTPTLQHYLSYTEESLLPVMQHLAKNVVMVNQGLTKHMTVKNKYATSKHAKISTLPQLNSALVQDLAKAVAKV
Chain of PLK1 (P53350 whole entry, species assumed): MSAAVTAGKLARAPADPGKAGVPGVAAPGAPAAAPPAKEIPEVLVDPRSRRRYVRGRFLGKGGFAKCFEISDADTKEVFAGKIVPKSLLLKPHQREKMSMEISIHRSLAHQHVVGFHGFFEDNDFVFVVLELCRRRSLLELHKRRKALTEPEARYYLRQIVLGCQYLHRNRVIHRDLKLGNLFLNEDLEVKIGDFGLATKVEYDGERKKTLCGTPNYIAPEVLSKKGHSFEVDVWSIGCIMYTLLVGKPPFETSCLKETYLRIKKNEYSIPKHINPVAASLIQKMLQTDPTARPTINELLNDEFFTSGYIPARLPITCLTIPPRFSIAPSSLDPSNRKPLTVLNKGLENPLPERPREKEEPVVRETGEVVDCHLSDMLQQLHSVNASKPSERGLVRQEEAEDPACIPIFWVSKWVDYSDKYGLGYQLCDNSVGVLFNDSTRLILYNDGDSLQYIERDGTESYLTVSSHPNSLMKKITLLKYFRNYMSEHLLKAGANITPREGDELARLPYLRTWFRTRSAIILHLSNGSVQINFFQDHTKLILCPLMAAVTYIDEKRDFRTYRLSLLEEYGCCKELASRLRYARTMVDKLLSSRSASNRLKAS

| Compound | IC50 (Pim-1) [nM] | IC50 (Pim-2) [nM] | IC50 (Pim-3) [nM] | IC50 (CDK1) [nM] | IC50 (PLK1) [nM] | EC50 (MOLM-13) [nM] | EC50 (MV4-11) [nM] | IC50 (phosphoBAD (DND-41)) [nM] | EC50 (EOL-1) [nM] |
| --- | --- | --- | --- | --- | --- | --- | --- | --- | --- |
| O=C(NCCCN1CCOCC1)c1ccc(-c2c(F)cnc3[nH]c4cnc(-c5cccnc5)cc4c23)cc1 [Example 19, 4-[3-fluoro-6-(pyridin-3-yl)-9H-pyrrolo[2,3-b:5,4-c′]dipyridin-4-yl]-N-[3-(morpholin-4-yl)propyl]benzamide] | < 100 | 100 to 1000 | < 100 | 1000 to 5000 | 100 to 1000 | 100 to 1000 |  |  | 100 to 1000 |
| NCCNC(=O)c1ccc(-c2c(F)cnc3[nH]c4cnc(-c5cccnc5)cc4c23)cc1 [Example 28, N-(2-aminoethyl)-4-[3-fluoro-6-(pyridin-3-yl)-9H-pyrrolo[2,3-b:5,4-c′]dipyridin-4-yl]benzamide] | < 100 | < 100 | < 100 | 100 to 1000 | 100 to 1000 |  | 100 to 1000 | 1000 to 5000 | 100 to 1000 |
| CN(C)CCCN(C)C(=O)c1ccc(-c2c(F)cnc3[nH]c4cnc(-c5cccnc5)cc4c23)cc1 [Example 59, N-[3-(dimethylamino)propyl]-4-[3-fluoro-6-(pyridin-3-yl)-9H-pyrrolo[2,3-b:5,4-c′]dipyridin-4-yl]-N-methylbenzamide] | < 100 | 100 to 1000 | < 100 | 100 to 1000 | 1000 to 5000 |  | 100 to 1000 | 1000 to 5000 | 100 to 1000 |
| CN1CCC(CCNC(=O)c2ccc(-c3c(F)cnc4[nH]c5cnc(-c6cccnc6)cc5c34)cc2)CC1 [Example 61, 4-[3-fluoro-6-(pyridin-3-yl)-9H-pyrrolo[2,3-b:5,4-c′]dipyridin-4-yl]-N-[2-(1-methylpiperidin-4-yl)ethyl]benzamide] | < 100 | 100 to 1000 | < 100 | 1000 to 5000 | 1000 to 5000 |  | 100 to 1000 | 1000 to 5000 | 100 to 1000 |
| CC(CNC(=O)c1ccc(-c2c(F)cnc3[nH]c4cnc(-c5cccnc5)cc4c23)cc1)N1CCCC1 (stereo not shown) [Example 63, 4-[3-fluoro-6-(pyridin-3-yl)-9H-pyrrolo[2,3-b:5,4-c′]dipyridin-4-yl]-N-[2-(pyrrolidin-1-yl)propyl]benzamide] | < 100 | 100 to 1000 | < 100 | 1000 to 5000 | 100 to 1000 |  | 100 to 1000 | 100 to 1000 | 100 to 1000 |
| CC(C)N(CCNC(=O)c1ccc(-c2c(F)cnc3[nH]c4cnc(-c5cccnc5)cc4c23)cc1)C(C)C [Example 66, N-[2-(dipropan-2-ylamino)ethyl]-4-[3-fluoro-6-(pyridin-3-yl)-9H-pyrrolo[2,3-b:5,4-c′]dipyridin-4-yl]benzamide] | < 100 | 100 to 1000 | < 100 | 1000 to 5000 | 100 to 1000 |  | 100 to 1000 | 100 to 1000 | < 100 |

Second part, led by results:

| IC50 (Pim-1) [nM] | IC50 (Pim-2) [nM] | IC50 (Pim-3) [nM] | IC50 (CDK1) [nM] | IC50 (PLK1) [nM] | EC50 (MOLM-13) [nM] | EC50 (MV4-11) [nM] | IC50 (phosphoBAD (DND-41)) [nM] | Compound | EC50 (EOL-1) [nM] |
| --- | --- | --- | --- | --- | --- | --- | --- | --- | --- |
| < 100 | < 100 | < 100 | 100 to 1000 | 1000 to 5000 |  |  | 1000 to 5000 | CN(C)CCNC(=O)c1ccc(-c2c(F)cnc3[nH]c4cnc(-c5cnn(C)c5)cc4c23)cc1 [Example 37, N-[3-(dimethylamino)ethyl]-4-[3-fluoro-6-(1-methyl-1H-pyrazol-4-yl)-9H-pyrrolo[2,3-b:5,4-c′]dipyridin-4-yl]benzamide] |  |
| < 100 | 100 to 1000 | < 100 | 1000 to 5000 | 100 to 1000 |  | 100 to 1000 | 100 to 1000 | CN(C)CC(C)(C)CNC(=O)c1ccc(-c2c(F)cnc3[nH]c4cnc(-c5cccnc5)cc4c23)cc1 [Example 52, N-[3-(dimethylamino)-2,2-dimethylpropyl]-4-[3-fluoro-6-(pyridin-3-yl)-9H-pyrrolo[2,3-b:5,4-c′]dipyridin-4-yl]benzamide] | < 100 |
| < 100 | 100 to 1000 | < 100 | 1000 to 5000 | 100 to 1000 |  | 100 to 1000 | 100 to 1000 | CN(CC1CCCCN1C)C(=O)c1ccc(-c2c(F)cnc3[nH]c4cnc(-c5cccnc5)cc4c23)cc1 (stereo not shown) [Example 64, 4-[3-fiuoro-6-(pyridin-3-yl)-9H-pyrrolo[2,3-b:5,4-c′]dipyridin-4-yl]-N-methyl-N-[(1-methylpiperidin-2-yl)methyl]benzamide] | 100 to 1000 |
| < 100 | < 100 | < 100 | 1000 to 5000 | 1000 to 5000 |  | 100 to 1000 | < 100 | CC(CN(C)C)NC(=O)c1ccc(-c2c(F)cnc3[nH]c4cnc(-c5cccnc5)cc4c23)cc1 (stereo not shown) [Example 68, N-[1-(dimethylamino)propan-2-yl]-4-[3-fluoro-6-(pyridin-3-yl)-9H-pyrrolo[2,3-b:5,4c′]dipyridin-4-yl]benzamide] | < 100 |
| < 100 | 100 to 1000 | < 100 | 100 to 1000 | 1000 to 5000 |  | 100 to 1000 | 1000 to 5000 | CN(C)CCCCNC(=O)c1ccc(-c2c(F)cnc3[nH]c4cnc(-c5cccnc5)cc4c23)cc1 [Example 75, N-[4-(dimethylamino)butyl]-4-[3-fluoro-6-(pyridin-3-yl)-9H-pyrrolo[2,3-b:5,4-c′]dipyridin-4-yl]benzamide] | 100 to 1000 |
| < 100 | < 100 | < 100 |  |  |  | < 100 | 100 to 1000 | COCCOc1cnc2[nH]c3cnc(-c4cccnc4)cc3c2c1-c1ccc(C(=O)NCCN(C)C)cc1 [Example 120, N-[2-(dimethylamino)ethyl]-4-[3-(2-methoxyethoxy)-6-(pyridin-3-yl)-9H-pyrrolo[2,3-b:5,4-c′]dipyridin-4-yl]benzamide] | < 100 |
